Eight compounds from ChEMBL document CHEMBL5465560, “Selectivity Literature for EUbOPEN Chemogenomic Library” (2024) can be followed below.

Experiment [1] has as its target Microtubule-associated serine/threonine-protein kinase 1 (Homo sapiens) (UniProt Q9Y2H9). Description: Selectivity interaction (Ambit KINOMEscan and KiNATiv profiling in Jurkat cells) EUB0000090b MAST1. It counts as cell-based. To be noted: at 1 µM.
The target of experiment [2] is Serine/threonine-protein kinase N1 (Homo sapiens, UniProt Q16512). Description: Selectivity interaction (Ambit KINOMEscan and KiNATiv profiling in Jurkat cells) EUB0000090b PKN1. The format is cell-based. To be noted: at 1 µM.
Serine/threonine-protein kinase N1, sequence (Q16512 2-942 limits assumed): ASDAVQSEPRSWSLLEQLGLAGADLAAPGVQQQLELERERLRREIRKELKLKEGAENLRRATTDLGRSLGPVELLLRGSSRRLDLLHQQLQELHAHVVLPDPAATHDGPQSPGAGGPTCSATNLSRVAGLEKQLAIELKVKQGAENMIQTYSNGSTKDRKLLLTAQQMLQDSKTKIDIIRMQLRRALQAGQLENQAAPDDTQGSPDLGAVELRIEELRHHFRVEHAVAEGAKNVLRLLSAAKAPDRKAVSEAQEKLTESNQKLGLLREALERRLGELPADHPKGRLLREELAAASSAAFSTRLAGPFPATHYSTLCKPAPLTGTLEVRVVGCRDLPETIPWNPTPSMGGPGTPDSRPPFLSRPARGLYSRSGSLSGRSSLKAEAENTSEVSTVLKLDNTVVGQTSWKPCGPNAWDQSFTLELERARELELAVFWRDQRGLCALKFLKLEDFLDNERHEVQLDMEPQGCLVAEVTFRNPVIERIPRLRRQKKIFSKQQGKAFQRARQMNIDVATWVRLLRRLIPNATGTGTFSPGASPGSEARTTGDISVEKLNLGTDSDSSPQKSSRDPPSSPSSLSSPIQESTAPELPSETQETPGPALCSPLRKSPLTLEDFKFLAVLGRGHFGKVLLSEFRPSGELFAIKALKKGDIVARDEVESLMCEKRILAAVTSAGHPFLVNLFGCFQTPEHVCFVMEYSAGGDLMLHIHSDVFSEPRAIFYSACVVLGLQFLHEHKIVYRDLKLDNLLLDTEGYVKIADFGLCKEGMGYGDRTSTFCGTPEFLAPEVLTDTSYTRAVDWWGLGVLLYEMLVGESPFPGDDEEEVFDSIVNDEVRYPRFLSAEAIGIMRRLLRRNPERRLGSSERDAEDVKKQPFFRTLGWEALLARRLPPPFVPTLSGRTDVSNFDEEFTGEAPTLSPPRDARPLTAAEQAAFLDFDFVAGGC
Experiment [3] addresses Mitogen-activated protein kinase kinase kinase 20 (Homo sapiens) (UniProt Q9NYL2). Description: Selectivity interaction (KinomeScan (DiscoverX)) EUB0001079a MAP3K20. To be noted: at 1 µM.
For experiment [4], the target named is Receptor tyrosine-protein kinase erbB-4 (Homo sapiens, UniProt Q15303). In words: Selectivity interaction (KinomeScan (DiscoverX)) EUB0000666a ERBB4. To be noted: at 10 µM.
Receptor tyrosine-protein kinase erbB-4, sequence (Q15303 whole entry): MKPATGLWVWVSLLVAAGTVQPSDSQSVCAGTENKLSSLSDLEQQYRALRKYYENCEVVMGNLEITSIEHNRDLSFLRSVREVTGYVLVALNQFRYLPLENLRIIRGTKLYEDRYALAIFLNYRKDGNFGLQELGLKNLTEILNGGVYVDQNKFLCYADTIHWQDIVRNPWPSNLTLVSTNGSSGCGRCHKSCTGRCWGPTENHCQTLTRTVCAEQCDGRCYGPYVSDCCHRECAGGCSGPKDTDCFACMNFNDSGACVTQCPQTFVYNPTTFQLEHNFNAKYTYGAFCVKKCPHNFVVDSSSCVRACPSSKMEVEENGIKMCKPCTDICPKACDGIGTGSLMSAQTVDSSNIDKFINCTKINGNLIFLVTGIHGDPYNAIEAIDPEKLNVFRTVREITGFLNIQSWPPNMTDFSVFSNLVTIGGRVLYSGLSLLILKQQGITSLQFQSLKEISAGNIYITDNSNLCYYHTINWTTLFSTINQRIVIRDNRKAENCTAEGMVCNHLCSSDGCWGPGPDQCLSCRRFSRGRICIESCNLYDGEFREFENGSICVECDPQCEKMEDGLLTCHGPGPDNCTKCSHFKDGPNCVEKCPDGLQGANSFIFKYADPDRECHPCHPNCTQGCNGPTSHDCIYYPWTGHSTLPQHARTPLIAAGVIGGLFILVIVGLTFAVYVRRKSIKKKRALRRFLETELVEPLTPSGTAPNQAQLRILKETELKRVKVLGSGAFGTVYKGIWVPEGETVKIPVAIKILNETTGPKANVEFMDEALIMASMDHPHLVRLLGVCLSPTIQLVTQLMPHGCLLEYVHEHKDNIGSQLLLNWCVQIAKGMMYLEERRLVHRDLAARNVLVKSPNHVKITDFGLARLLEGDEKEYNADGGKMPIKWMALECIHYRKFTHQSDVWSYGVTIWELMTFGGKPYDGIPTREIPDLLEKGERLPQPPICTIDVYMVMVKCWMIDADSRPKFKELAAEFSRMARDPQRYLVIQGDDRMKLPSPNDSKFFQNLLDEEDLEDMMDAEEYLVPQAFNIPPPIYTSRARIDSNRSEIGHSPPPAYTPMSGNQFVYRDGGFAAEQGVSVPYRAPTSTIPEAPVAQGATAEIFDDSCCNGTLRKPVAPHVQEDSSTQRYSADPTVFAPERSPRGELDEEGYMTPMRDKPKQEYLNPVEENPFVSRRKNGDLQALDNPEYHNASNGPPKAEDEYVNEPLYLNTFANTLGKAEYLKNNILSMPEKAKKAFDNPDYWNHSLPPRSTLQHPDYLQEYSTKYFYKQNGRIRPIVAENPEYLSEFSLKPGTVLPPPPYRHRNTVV
The target in experiment [5] is Serine/threonine-protein kinase pim-1 (Homo sapiens, UniProt P11309). In words: Selectivity interaction (KinomeScan (DiscoverX)) EUB0000607a PIM1. To be noted: at 10 µM.
Experiment [6] addresses T1, Serine/threonine-protein kinase tousled-like 1 (Homo sapiens) (UniProt Q9UKI8).
T1 sequence (whole entry): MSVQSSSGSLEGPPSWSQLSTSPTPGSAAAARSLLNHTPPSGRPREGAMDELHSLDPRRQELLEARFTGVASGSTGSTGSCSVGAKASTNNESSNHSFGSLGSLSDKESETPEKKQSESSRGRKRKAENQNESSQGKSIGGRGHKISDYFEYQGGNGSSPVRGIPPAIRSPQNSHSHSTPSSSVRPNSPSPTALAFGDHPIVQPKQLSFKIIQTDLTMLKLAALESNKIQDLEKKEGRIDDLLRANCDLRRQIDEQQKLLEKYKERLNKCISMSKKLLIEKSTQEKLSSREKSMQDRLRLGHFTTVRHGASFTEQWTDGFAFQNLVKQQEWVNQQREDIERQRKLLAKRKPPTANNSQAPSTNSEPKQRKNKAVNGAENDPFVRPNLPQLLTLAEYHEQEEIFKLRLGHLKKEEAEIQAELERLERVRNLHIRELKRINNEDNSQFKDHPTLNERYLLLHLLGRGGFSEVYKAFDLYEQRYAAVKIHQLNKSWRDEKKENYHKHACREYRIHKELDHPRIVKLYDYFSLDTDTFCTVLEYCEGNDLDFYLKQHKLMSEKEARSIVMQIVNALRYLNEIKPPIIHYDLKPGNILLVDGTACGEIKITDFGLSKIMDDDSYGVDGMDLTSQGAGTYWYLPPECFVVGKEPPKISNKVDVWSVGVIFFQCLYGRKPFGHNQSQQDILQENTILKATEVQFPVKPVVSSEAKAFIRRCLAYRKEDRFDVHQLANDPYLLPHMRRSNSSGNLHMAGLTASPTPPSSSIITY
In words: Selectivity interaction (KinomeScan (DiscoverX)) EUB0000607a TLK1. To be noted: at 10 µM.

For experiment [7], the target named is T2, Mitogen-activated protein kinase kinase kinase kinase 2 (Homo sapiens) (UniProt Q12851).
T2 sequence (whole entry): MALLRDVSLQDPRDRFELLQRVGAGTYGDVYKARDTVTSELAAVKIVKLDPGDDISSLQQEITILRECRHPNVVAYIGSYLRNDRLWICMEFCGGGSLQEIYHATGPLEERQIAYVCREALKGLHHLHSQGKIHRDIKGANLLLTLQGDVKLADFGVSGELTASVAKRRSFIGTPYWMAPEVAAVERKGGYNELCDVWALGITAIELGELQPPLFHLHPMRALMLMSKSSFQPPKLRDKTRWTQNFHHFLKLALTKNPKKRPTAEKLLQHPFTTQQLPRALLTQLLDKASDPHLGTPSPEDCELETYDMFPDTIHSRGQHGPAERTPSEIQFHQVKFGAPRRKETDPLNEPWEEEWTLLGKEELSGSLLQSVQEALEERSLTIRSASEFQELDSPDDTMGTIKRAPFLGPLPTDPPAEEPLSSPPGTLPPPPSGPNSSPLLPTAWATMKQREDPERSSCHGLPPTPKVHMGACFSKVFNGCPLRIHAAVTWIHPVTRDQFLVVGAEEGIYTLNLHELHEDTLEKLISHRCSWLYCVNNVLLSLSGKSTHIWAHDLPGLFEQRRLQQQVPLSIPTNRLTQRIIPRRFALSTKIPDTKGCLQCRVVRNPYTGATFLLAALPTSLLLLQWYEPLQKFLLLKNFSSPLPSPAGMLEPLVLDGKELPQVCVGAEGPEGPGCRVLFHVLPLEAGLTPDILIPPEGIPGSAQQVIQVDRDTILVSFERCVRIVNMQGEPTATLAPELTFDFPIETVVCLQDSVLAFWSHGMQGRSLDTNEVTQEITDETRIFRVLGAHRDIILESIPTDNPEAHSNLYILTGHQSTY
Description: Selectivity interaction (KinomeScan (DiscoverX)) EUB0000607a MAP4K2. To be noted: at 10 µM.

The target in experiment [8] is Proto-oncogene tyrosine-protein kinase receptor Ret (Homo sapiens, UniProt P07949). In words: Selectivity interaction (Kinase panel (Invitrogen)) EUB0000639a RET. To be noted: at 200 nM.
Proto-oncogene tyrosine-protein kinase receptor Ret, sequence (P07949 whole entry): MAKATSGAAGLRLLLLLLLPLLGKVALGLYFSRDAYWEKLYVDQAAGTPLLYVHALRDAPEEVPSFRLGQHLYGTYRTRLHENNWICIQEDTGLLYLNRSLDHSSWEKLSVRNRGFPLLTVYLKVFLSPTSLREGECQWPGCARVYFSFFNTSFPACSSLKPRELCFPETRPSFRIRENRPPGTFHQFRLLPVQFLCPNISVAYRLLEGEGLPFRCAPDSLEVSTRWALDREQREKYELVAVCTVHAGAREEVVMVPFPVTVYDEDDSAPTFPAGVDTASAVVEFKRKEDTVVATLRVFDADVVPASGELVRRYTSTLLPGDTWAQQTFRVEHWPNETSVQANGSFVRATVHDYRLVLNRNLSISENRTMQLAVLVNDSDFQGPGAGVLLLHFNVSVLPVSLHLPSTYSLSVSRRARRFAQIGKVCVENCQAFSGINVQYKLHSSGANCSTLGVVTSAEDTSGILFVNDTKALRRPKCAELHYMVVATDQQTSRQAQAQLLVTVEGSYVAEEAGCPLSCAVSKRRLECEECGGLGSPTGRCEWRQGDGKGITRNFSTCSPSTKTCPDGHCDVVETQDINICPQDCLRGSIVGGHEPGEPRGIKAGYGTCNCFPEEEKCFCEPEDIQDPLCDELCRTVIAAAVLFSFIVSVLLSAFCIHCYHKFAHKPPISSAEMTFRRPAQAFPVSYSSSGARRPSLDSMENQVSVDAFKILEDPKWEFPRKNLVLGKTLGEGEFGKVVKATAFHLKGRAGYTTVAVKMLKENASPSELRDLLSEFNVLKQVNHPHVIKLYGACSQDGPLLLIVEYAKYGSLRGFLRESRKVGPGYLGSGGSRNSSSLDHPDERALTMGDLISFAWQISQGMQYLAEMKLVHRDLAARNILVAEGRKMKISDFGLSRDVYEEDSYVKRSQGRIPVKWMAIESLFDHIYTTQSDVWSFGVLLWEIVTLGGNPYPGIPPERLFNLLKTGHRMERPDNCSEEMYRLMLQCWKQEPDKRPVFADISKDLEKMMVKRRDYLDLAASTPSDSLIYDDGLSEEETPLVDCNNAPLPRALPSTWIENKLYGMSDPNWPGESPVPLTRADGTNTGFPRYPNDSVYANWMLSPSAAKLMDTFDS
Experiment [9] has as its target Serine/threonine-protein kinase WNK4 (Homo sapiens) (UniProt Q96J92). Description: Selectivity interaction (KinomeScan (DiscoverX)) EUB0000229b WNK4. To be noted: at 10 µM.
Experiment [10] addresses Cyclin-dependent kinase 7 (Homo sapiens, UniProt P50613). In words: Selectivity interaction (KinomeScan (DiscoverX)) EUB0001619a CDK7. To be noted: at 1 µM.
In experiment [11] the target is Serine/threonine-protein kinase MARK1 (Homo sapiens) (UniProt Q9P0L2). Description: Selectivity interaction (KinomeScan (DiscoverX)) EUB0000618a MARK1. To be noted: at 10 µM.

Serine/threonine-protein kinase WNK4 (Homo sapiens), sequence (Q96J92 whole entry): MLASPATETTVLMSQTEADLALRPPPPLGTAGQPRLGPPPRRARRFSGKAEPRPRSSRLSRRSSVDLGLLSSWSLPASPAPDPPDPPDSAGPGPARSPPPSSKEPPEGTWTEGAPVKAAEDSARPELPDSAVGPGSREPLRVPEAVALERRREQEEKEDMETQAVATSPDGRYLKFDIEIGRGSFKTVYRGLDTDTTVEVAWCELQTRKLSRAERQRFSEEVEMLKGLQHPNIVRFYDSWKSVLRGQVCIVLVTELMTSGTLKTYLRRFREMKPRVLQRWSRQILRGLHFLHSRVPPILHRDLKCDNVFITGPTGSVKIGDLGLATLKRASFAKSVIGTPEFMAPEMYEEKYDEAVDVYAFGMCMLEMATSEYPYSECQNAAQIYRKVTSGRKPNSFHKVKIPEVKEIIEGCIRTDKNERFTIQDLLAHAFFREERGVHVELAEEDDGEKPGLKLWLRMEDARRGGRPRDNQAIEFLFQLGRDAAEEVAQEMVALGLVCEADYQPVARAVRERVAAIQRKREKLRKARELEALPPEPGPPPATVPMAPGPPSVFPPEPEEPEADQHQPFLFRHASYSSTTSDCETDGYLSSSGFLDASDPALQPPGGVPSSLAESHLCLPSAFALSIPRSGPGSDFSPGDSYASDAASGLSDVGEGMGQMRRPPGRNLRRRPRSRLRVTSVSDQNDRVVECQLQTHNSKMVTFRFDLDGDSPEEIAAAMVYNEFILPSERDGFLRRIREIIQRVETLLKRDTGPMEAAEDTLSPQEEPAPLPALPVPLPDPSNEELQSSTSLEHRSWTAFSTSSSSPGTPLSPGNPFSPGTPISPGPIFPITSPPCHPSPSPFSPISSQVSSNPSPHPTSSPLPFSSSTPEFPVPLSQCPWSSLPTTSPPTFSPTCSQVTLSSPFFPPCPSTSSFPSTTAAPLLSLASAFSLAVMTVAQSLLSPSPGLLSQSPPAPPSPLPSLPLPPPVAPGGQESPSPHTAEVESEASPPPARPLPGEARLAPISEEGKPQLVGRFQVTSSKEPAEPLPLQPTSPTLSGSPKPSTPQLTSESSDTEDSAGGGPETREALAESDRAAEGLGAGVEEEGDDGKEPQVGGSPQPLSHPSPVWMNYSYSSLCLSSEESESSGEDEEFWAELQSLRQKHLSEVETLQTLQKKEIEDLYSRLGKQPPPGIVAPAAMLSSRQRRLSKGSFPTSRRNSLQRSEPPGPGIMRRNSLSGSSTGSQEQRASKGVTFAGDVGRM
Cyclin-dependent kinase 7, sequence (P50613 whole entry): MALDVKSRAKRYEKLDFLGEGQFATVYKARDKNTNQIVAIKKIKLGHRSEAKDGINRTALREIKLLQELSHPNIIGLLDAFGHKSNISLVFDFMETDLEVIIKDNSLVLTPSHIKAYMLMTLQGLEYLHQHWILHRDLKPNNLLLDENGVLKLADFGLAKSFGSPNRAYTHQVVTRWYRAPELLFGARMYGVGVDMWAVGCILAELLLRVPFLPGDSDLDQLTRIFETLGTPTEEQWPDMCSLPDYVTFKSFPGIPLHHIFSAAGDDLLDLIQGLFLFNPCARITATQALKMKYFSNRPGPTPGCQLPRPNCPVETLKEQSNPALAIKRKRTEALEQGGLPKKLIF

On to `CN(C)C/C=C/C(=O)Nc1ccc(C(=O)N2CCCC(Nc3ncc(Cl)c(-c4c[nH]c5ccccc45)n3)C2)cc1` (stereo unspecified), for which the % of control came out at 95% in experiment [1] and 94% in experiment [2]. In experiment [3], `Nc1cnc(N2CCc3cc(S(=O)(=O)Nc4c(F)cc(Cl)cc4F)cc(N4CCCC4=O)c32)nc1` [TP-020n] had a % of control of 95%. In turn, `O=C(NOC[C@H](O)CO)c1ccc(F)c(F)c1Nc1ccc(I)cc1F` showed a % of control in experiment [4] of 100%. With `CNC(=O)Nc1ccc(-c2nc(N3CC4CCC(C3)O4)c3cnn(C4CCC5(CC4)OCCO5)c3n2)cc1`, the % of control in [5] was found to be 100%; in [6], 86%; in [7], 100%.

On to `CC[C@@H]1[C@H](F)C(=O)N[C@@H]1COc1nccc2cc(C(N)=O)c(OC)cc12` [ZIMLOVISERTIB], for which, in experiment [8], the % of inhibition is 66%. In the case of `COc1cc(N(C)c2ccnc3ccc(C(F)(F)F)cc23)cc(OC)c1OC`, the % binding in [9] stood at 100%. `N#Cc1cccc(-c2c[nH]c3ncnc(N4CCOCC4)c23)c1`: the % of control in experiment [10] worked out at 81%.

In the case of `O[C@H]1CC[C@H](Nc2ncc3nc(Nc4c(F)cc(F)cc4F)n([C@H]4CCOC4)c3n2)CC1`, the % of control in experiment [11] was 100%.
